The values below come from US20070141635A1, “Novel translocation assay” (priority 2003, published 2007).

The subject of one experiment is GLUT1. The note with it: Perini et al., Diabetes 53:41-52, 2004; cited from earlier work.
Another experiment concerns GLUT4. The note with it: cited from earlier work.
The test system of experiment [1] is 3T3-L1 adipocytes expressing HA-GLUT4 WT. Kind of experiment: Continuous anti-HA antibody uptake (GLUT4 recycling) experiment. The format is cell-based. How it is done:
For continuous antibody uptake experiments, cells were incubated for 20 min with or without insulin, whereafter anti-HA (50 μg/ml) or non-relevant antibody was added. Cells that were used to determine the total amount of HA-GLUT4 were not incubated with antibody during this 37° C. incubation. After incubation, the cells were fixed and quenched as described above, and incubated for 20 min with 5% NSS and 0.1% saponin. Cells that were used to determine the total cellular amount of HA-GLUT4 were incubated for 60 min with anti-HA antibody or control antibody in PBS containing 2% NSS. All other cells were incubated with 2% NSS without antibody. Subsequently, the cells were incubated with ALEXA488-conjugated goat-anti-mouse antibody and ALEXA594-conjugated WGA, washed and analysed. The amount of specific anti-HA uptake was expressed as a percentage of total cellular immuno-reactive HA-GLUT4.
To analyze the exchange of GLUT4 with the cell surface under steady state conditions, studies were performed in which live cells were incubated with anti-HA antibody at 37° C. (FIG. 5). […] 3T3-L1 adipocytes expressing HA-GLUT4 WT were stimulated for 2 h with 200 nM insulin in the presence of anti-HA antibody, washed extensively, incubated for 2 h without insulin and anti-HA, and incubated for a further 20 min in the absence (FIG. 5C) or presence (FIG. 5D) of 200 nM insulin.
For quantification of anti-HA antibody uptake, cells were preincubated for 20 min in the presence or absence of insulin after which anti-HA antibody or control antibody was added for various times (FIG. 5E). Antibody uptake was determined by labeling cells with fluorescent secondary antibody after fixation. Antibody uptake was expressed as a percentage of post-fixation anti-HA labeling.
To study this non-recycling GLUT4 pool in adipocytes, 3T3-L1 adipocytes expressing HA-GLUT4 WT were incubated at 37° C. in the continuous presence of anti-HA antibody. Cells were incubated with or without 200 nM insulin for 20 min, after which anti-HA antibody was added in the continued presence or absence of insulin. Cells were incubated further for up to 180 min, fixed, permeablilized, and incubated with fluorescent secondary antibody. The level of anti-HA antibody taken up by the cells was then expressed as a percentage of total post-fixation anti-HA labeling of permeablilized cells.

The test system is the same in experiment [2]. Kind of experiment: Inducing GLUT4 translocation with insulin followed by sucrose. Format: cell-based. As to conditions: 0.3 or 0.6M sucrose for 2 hours after 20 minutes 200 nM insulin; serum free. As for the experimental part: 3T3-L1 adipocytes expressing HA-GLUT4 WT were serum starved for 2 hours at 37° C. Following 20 minutes insulin stimulation with 200 nM insulin, cells were incubated for additional 2 hours in serum free medium supplemented with 0.2% BSA and 0.3 or 0.6M sucrose. After post-fixation anti-HA immunolabeling the level of cell surface HA-GLUT4 levels was determined as a percentage of total HA-GLUT4 detected after cell lysis. […] Furthermore, increasing concentrations of sucrose induce more GLUT4 to translocate to the plasma membrane in the presence of reduced levels of insulin.

For experiment [3], the system named is HA-GLUT4-expressing 3T3-L1 adipocytes. Kind of experiment: Fluorescence-based HA-GLUT4 translocation assay (GLUT4 at plasma membrane as percentage of total) in adipocytes. The format is cell-based. As for the experimental part: Retrovirally-transduced fibroblasts expressing HA-tagged GLUT 4 or a mutant therof were differentiated into adipocytes essentially as described above. These adipocytes were then subcultured for 30 hours. Insulin was then added at different time points, after which the cells were fixed in 3% formaldehyde. After washing and quenching with 50 mM glycine, cells were incubated for 20 min with 5% normal swine serum (NSS) in the absence or presence of 0.1% saponin to analyse the level of GLUT4 at the plasma membrane (PM) or the total cellular GLUT4 content, respectively. Cells were incubated for 60 min with a saturating concentration of either an antibody directed against the HA tag or a control non-relevant antibody (mouse IgG MOPC21) in PBS containing 2% NSS. After extensive washing, the cells were incubated for 20 min with 5% NSS in the presence or absence of 0.1% saponin to permeabilize all cells. Cells were incubated for 60 min with saturating concentrations of ALEXA488-conjugated goat-anti-mouse antibody (20 μg/ml) and ALEXA594-conjugated WGA (10 μg/ml) in PBS containing 2% NSS. After washing, fluorescence ([…]) was measured using the bottom-reading mode in a fluorescence microtiter plate reader (FLUOstar Galaxy, BMG Labtechnologies, Offenburg, Germany). The percentage of GLUT4 at the PM was calculated for each condition. ALEXA594-WGA fluorescence was used to correct for variation in cell density in each well.
To determine the extent of insulin-induced GLUT4 translocation using the assay described supra, HA-GLUT4-expressing 3T3-L1 adipocytes grown in 96 well plates were incubated for 2 h in the absence of serum, whereafter 200 nM insulin was added at various time points and cell surface levels of HA-GLUT4 were analysed by indirect immunofluorescence labeling (FIG. 2B). Saturating levels of anti-HA and secondary antibodies were used to ensure that substantially all HA-GLUT4 molecules were labeled. A non-relevant antibody was used at the same concentration to determine the non-specific binding of the anti-HA antibody. Insulin stimulated the appearance of HA-GLUT4 at the PM with a half-time of about 2.5 min reaching a plateau by 12 min which was maintained for at least 60 min. No specific anti-HA labeling was detected in non-infected cells (FIG. 2A).

The subject of experiment [4] is 3T3-L1 fibroblasts expressing HA-tagged GLUT4. Kind of experiment: Fluorescence-based HA-GLUT4 translocation assay in fibroblasts. The format is cell-based.
Experiment [5] deals with 3T3-L1 adipocytes expressing HA-GLUT4. Kind of experiment: Single cycle GLUT4 internalization experiment. The format is cell-based. As for the experimental part: For single cycle internalization experiments cells were stimulated for 20 min with 200 nM insulin after starvation and washed on ice with ice-cold DMEM containing 20 mM HEPES pH 7.4 and 0.2% BSA. Cells were incubated with 100 nM wortmannin or 200 nM insulin and either anti-HA (25 μg/ml) or non-relevant antibody (MOPC21) in DMEM/HEPES/BSA for 1 h on ice. Wortmanin was added to abolish insulin signaling. […] Cells were washed extensively, then either 100 nM wortmanin or 200 nM insulin in DMEM/HEPES/BSA was added. The plate was then transferred to 37° C. and at different times, formaldehyde was added to the wells to a concentration of 3%. After 5 min the formaldehyde was washed away and residual amounts were quenched. The cells were incubated for 20 min with 5% NSS in the absence of saponin, labeled with ALEXA488-conjugated goat-anti-mouse antibody and ALEXA594-conjugated WGA, washed and analysed as described above.
GLUT4 WT molecules that were labeled with anti-HA antibody on ice were rapidly cleared from the cell surface as indicated by the disappearance of GLUT4 at early time points after transfer of the cells from ice to 37° C. (FIG. 4). After approximately 5 min the level of GLUT4 at the PM reached steady state in the presence but not in the absence of insulin, indicating recycling of GLUT4 back to the PM in insulin-stimulated cells. […]

In experiment [6] the test system is HA-GLUT4 expressing 3T3-L1 adipocytes. The experiment can be described thus: Model of insulin resistance (chronic insulin stimulation, then acute insulin). The format is cell-based. As to conditions: for level of GLUT4 at the plasma membrane after chronic insulin: FIG. 12A. As for the experimental part: 3T3-L1 adipocytes retrovirally infected with GLUT4 (described in Example 1) were incubated 24 hours or 48 hours either with 600 nM insulin or with medium alone. After this chronic insulin stimulation (as indicated in FIG. 10) at 37° C. in a CO2 incubator, cells were washed and 200 nM insulin was added for additional 10 or 30 minutes. Cell surface levels of HA-GLUT4 were measured using the fluorescence based assay described supra and expressed as a percentage of total HA-GLUT4 detected in the cell. The experiment was also performed with the HA-GLUT4 TAIL mutant
HA-GLUT4 expressing 3T3-L1 adipocytes were grown in 96 well plates, incubated for 2 hours or overnight in medium supplemented with 10% fetal calf serum or no serum. 200 nM insulin in case of acute stimulation and 600 nM insulin in case of chronic stimulation have been used. After overnight stimulation cells were washed and 200 nM fresh insulin was added for 10 or 30 mln.

Turning to `C[C@]12CC[C@H](O)CC1=CC[C@@H]1[C@@H]2CC[C@]2(C)C(=O)CC[C@@H]12` [DHEA, Dehydroepiandrosterone], the “effect on levels of GLUT1 at the plasma membrane” value with GLUT1 is reported as “enhance levels of GLUT1 at the plasma membrane”.

With `CO[C@@H]1C[C@@H](C[C@H]2CC[C@H](C)[C@H]([C@@H](C)C(=O)O)O2)O[C@]2(O[C@](C)([C@H]3CC[C@@](C)([C@@H]4O[C@@H]([C@H]5O[C@@](O)(CO)[C@H](C)C[C@@H]5C)C[C@@H]4C)O3)C[C@H]2C)[C@@H]1C` [Nigericin, nigericin], the “effect on insulin mediated GLUT4 translocation” value with GLUT4 (Chu et al., J Cell Biochem. 2002;85:83-91) is given as “inhibit insulin mediated GLUT4 translocation”.

As to `C[C@@H]1C[C@@H]([C@H](O)CC2CC(=O)NC(=O)C2)C(=O)[C@@H](C)C1` [cycloheximide], in experiment [1] (10 mg/ml cycloheximide for 2 h prior to the addition of antibody, FIG. 6F), the “GLUT4 that could not be labeled during antibody uptake” value was determined as 30%.

Take `OC[C@H]1O[C@@](CO)(O[C@H]2O[C@H](CO)[C@@H](O)[C@H](O)[C@H]2O)[C@@H](O)[C@@H]1O` [sucrose]: in experiment [2], the “level of HA-GLUT4 translocated to the plasma membrane” value was “dramatically increases”.

In the case of insulin, in experiment [3] (200 nM insulin), the “time for which plateau of HA-GLUT4 at the PM was maintained” value is “at least 60 min”. For the same compound, the “time to plateau of HA-GLUT4 at the PM” value in experiment [3] (200 nM insulin after 2 h in the absence of serum) is recorded as at most 12 min. Further, the “half-time of appearance of HA-GLUT4 at the PM” value in experiment [3] (200 nM insulin after 2 h in the absence of serum, 96 well plates) is given as “about 2.5 min”. In addition, the “effect of long-term insulin treatment on cell surface HA-GLUT4 levels” value in experiment [3] (200 nM insulin for up to 3 hours, FIG. 6H) is “did not drastically down-regulate cell surface GLUT4 levels”. The “level of GLUT4 at the PM as percentage of total specific fluorescence” value in experiment [3] (200 nM insulin, basal value 4%) was determined as 34%. Further, the “increase in cell surface GLUT4 levels in response to insulin stimulation” value in experiment [3] (adipocytes, 200 nM insulin) was about 8 fold. The “time to maximum level of surface GLUT4” value in experiment [4] (followed by rapid reduction) came out at 6 min. Also, in experiment [4] (maximum level), the “increase in surface GLUT4 above non-stimulated cells” value was determined as 5 fold. Also, the “effect on GLUT4 internalization rate” value in experiment [5] (200 nM insulin versus 100 nM wortmannin (basal), GLUT4 WT and TAIL) is on record as “unaffected”. The “time until level of GLUT4 at the PM reached steady state” value in experiment [5] (in the presence of 200 nM insulin, after transfer from ice to 37° C.) is recorded as “approximately 5 min”. In experiment [1] (200 nM insulin, up to 180 min), the “HA-GLUT4 expressed in the cell that did not translocate to the membrane during the experiment” value is recorded as “approximately 30%”. Besides, in experiment [1] (200 nM insulin, up to 180 min, FIG. 6A), the “HA-GLUT4 labeled by anti-HA antibody uptake, percentage of total post-fixation labeling” value is given as “approximately 30%”. The “size of the recycling pool of GLUT4” value in experiment [1] (different doses of insulin, FIG. 8) is “incrementally increased with increasing doses”. Also, in experiment [6] (600 nM insulin 24 or 48 h in the absence of serum (-serum or KRP), then 200 nM insulin), the “levels of GLUT4 translocation after chronic insulin” value was “little more than basal levels”. In addition, the figures for the “level of GLUT4 at the plasma membrane after chronic insulin” value in experiment [6] (600 nM insulin 24 h in the presence of serum) and in experiment [6] (600 nM insulin 48 h in the presence of serum) were “dramatically increased” and “suppressed”, respectively.

On to “margatoxin (TIINVKCTSPKQCLPPCKAQFGQSAGAKCMNGKCKCYPH; UniProt P40755 1-39, looked up)”, for which, in the experiment on GLUT4 (suppression of Kv1.3 activity, Xu et al, Proc Natl Acad Sci USA. 101:3112-3117, 2004), the “effect on level of GLUT4 translocated to the plasma membrane” value is on record as “increase the level of GLUT4 translocated to the plasma membrane”.
